Earlier results on two molecules are cited in patent US20230158030A1, “METHODS AND COMPOSITION FOR TREATMENT OF COVID-19 ILLNESS REQUIRING HOSPITALIZATION” (OHIO STATE INNOVATION FOUNDATION, priority 2020, published 2023).

In one data set the test system is covid-19. The settings on record: active covid-19 syndrome.
The subject of a further data set is T-cell function. Conditions: TLR agonists, PD1 blockade, CAR-T cells.
Data set [1] relates to CAR-T cell mediated cytokine release syndrome. The settings on record: murine CAR-T cytokine release syndrome model.
The next data set concerns pneumococcal pneumonia. The settings on record: murine pneumococcal pneumonia.
Setting [2] is: intranasally to mice starting 72 h after lethal infection.

`CCN(CCO)CCCC(C)Nc1ccnc2cc(Cl)ccc12` (stereo not shown) [hydroxychloraquine]: the “benefit among ill patients” value in the data set with covid-19 is reported as “antidotal benefit”.
For the molecule `C=CC(=O)N1CCC[C@@H](n2nc(-c3ccc(Oc4ccccc4)cc3)c3c(N)ncnc32)C1` [ibrutinib, 1-[(3R)-3-[4-amino-3-(4-phenoxyphenyl)pyrazolo[3,4-d]pyrimidin-1-yl]piperidin-1-yl]prop-2-en-1-one], in the data set on T-cell function, the “enhancement of other T-cell based therapies” value is given as “enhance other T-cell based therapies”. Also, in data set [1], the “T-cell expansion or killing” value was “not abrogating T-cell expansion or killing” and the survival entry is on record as “improved survival”. Also, in the data set with pneumococcal pneumonia, the “antibiotic mediated killing of bacteria” value was “not impaired”; the “monocyte and neutrophil influx into the lung, alveolar macrophage activation, neutrophil influx, cytokine release and plasma leakage” value is listed as “negatively influence”. In addition, in the data set on influenza A virus (setting [2]), the overall survival entry is given as “improved overall survival” and the weight loss result is on record as “diminished weight loss”. Further, in the data set on influenza A virus (mice, lethal influenza A), the “inflammatory mediators TNFalpha, IL-1beta, IL-6, KC, and MCP-1” value was “diminished”; the “morphological changes to the lungs” value was “decreased alveolar hemorrhage, interstitial thickening, and the presence of alveolar exudate”.
